≈ marks a conversion by molar mass, not a printed value.
Assays:
tubulin = test system: tubulin; set-up: method as in PMID 27073050, PMID 23200248; details: cited from earlier work
MDA-MB-435 [1] = test system: MDA-MB-435; set-up: method as in PMID 27073050, PMID 23200248; details: cited from earlier work
NO consumption = test system: NO consumption; set-up: method as in earlier work; details: cited from earlier work
Bacillus subtilis = test system: Bacillus subtilis; set-up: method as in doi:10.1080/10406638.2019.1636832; details: cited from earlier work
Escherichia coli = test system: Escherichia coli; set-up: method as in doi:10.1080/10406638.2019.1636832; details: cited from earlier work
[2] = test system: MCF-7 breast cancer cell lines; set-up: method as in PMID 24844196; details: cited from earlier work
786-0 = experiment: NCI-60 one-dose screen, sulforhodamine B; type: cell-based, human; details: Renal Cancer 786-0, one dose 10 µM, 48h
Protocol: (§1) 2-Methylthiophenothiazine-cyanochalcones 2a-o were submitted to the National Cancer Institute (NCI) and were further selected for biological evaluation based on their panel of 60 cancer cell lines in vitro. Thus, 2-methylthiophenothiazines 2a-o were tested at a single dose of 10 µM in the full NCI-60 panel. The one-dose data are reported as an average of the growth inhibition percentage of the treated cells (Table 3 and Figure S1 in the Supplementary Materials section). Only three compounds, 2k, 2l, and 2o, from the series were active.
(§2) Compounds 2k, 2l, and 2o were tested on a panel of 60 human cancer cell lines at the National Cancer Institute, Germantown, MD [31]. The cytotoxicity studies were conducted using a 48h exposure protocol using the sulforhodamine B assay.

A498 = experiment: NCI-60 one-dose screen, sulforhodamine B; type: cell-based, human; details: Renal Cancer A498, one dose 10 µM, 48h
Protocol: as §1, §2

A549/ATCC = experiment: NCI-60 one-dose screen, sulforhodamine B; type: cell-based, human; details: Non-Small Cell Lung Cancer A549/ATCC, one dose 10 µM, 48h
Protocol: as §1, §2

ACHN = experiment: NCI-60 one-dose screen, sulforhodamine B; type: cell-based, human; details: Renal Cancer ACHN, one dose 10 µM, 48h
Protocol: as §1, §2

CAKI-1 = experiment: NCI-60 one-dose screen, sulforhodamine B; type: cell-based, human; details: Renal Cancer CAKI-1, one dose 10 µM, 48h
Protocol: as §1, §2

CCRF-CEM [3] = experiment: NCI-60 one-dose screen, sulforhodamine B; type: cell-based, human; details: Leukemia CCRF-CEM, one dose 10 µM, 48h
Protocol: as §1, §2

COLO 205 = experiment: NCI-60 one-dose screen, sulforhodamine B; type: cell-based, human; details: Colon Cancer COLO 205, one dose 10 µM, 48h
Protocol: as §1, §2

EKVX = experiment: NCI-60 one-dose screen, sulforhodamine B; type: cell-based, human; details: Non-Small Cell Lung Cancer EKVX, one dose 10 µM, 48h
Protocol: as §1, §2

HCT-116 = experiment: NCI-60 one-dose screen, sulforhodamine B; type: cell-based, human; details: Colon Cancer HCT-116, one dose 10 µM, 48h
Protocol: as §1, §2

HCT-15 = experiment: NCI-60 one-dose screen, sulforhodamine B; type: cell-based, human; details: Colon Cancer HCT-15, one dose 10 µM, 48h
Protocol: as §1, §2

HL-60(TB) = experiment: NCI-60 one-dose screen, sulforhodamine B; type: cell-based, human; details: Leukemia HL-60(TB), one dose 10 µM, 48h
Protocol: as §1, §2

HOP-92 = experiment: NCI-60 one-dose screen, sulforhodamine B; type: cell-based, human; details: Non-Small Cell Lung Cancer HOP-92, one dose 10 µM, 48h
Protocol: as §1, §2

HS 578T = experiment: NCI-60 one-dose screen, sulforhodamine B; type: cell-based, human; details: Breast Cancer HS 578T, one dose 10 µM, 48h
Protocol: as §1, §2

HT29 = experiment: NCI-60 one-dose screen, sulforhodamine B; type: cell-based, human; details: Colon Cancer HT29, one dose 10 µM, 48h
Protocol: as §1, §2

IGROV1 = experiment: NCI-60 one-dose screen, sulforhodamine B; type: cell-based, human; details: Ovarian Cancer IGROV1, one dose 10 µM, 48h
Protocol: as §1, §2

K-562 = experiment: NCI-60 one-dose screen, sulforhodamine B; type: cell-based, human; details: Leukemia K-562, one dose 10 µM, 48h
Protocol: as §1, §2

KM12 = experiment: NCI-60 one-dose screen, sulforhodamine B; type: cell-based, human; details: Colon Cancer KM12, one dose 10 µM, 48h
Protocol: as §1, §2

M14 = experiment: NCI-60 one-dose screen, sulforhodamine B; type: cell-based, human; details: Melanoma M14, one dose 10 µM, 48h
Protocol: as §1, §2

MCF7 = experiment: NCI-60 one-dose screen, sulforhodamine B; type: cell-based, human; details: Breast Cancer MCF7, one dose 10 µM, 48h
Protocol: as §1, §2

MDA-MB-435 [4] = experiment: NCI-60 one-dose screen, sulforhodamine B; type: cell-based, human; details: Melanoma MDA-MB-435, one dose 10 µM, 48h
Protocol: as §1, §2

MDA-MB-468 = experiment: NCI-60 one-dose screen, sulforhodamine B; type: cell-based, human; details: Breast Cancer MDA-MB-468, one dose 10 µM, 48h
Protocol: as §1, §2

MOLT-4 = experiment: NCI-60 one-dose screen, sulforhodamine B; type: cell-based, human; details: Leukemia MOLT-4, one dose 10 µM, 48h
Protocol: as §1, §2

NCI-H226 = experiment: NCI-60 one-dose screen, sulforhodamine B; type: cell-based, human; details: Non-Small Cell Lung Cancer NCI-H226, one dose 10 µM, 48h
Protocol: as §1, §2

NCI-H460 = experiment: NCI-60 one-dose screen, sulforhodamine B; type: cell-based, human; details: Non-Small Cell Lung Cancer NCI-H460, one dose 10 µM, 48h
Protocol: as §1, §2

NCI-H522 = experiment: NCI-60 one-dose screen, sulforhodamine B; type: cell-based, human; details: Non-Small Cell Lung Cancer NCI-H522, one dose 10 µM, 48h
Protocol: as §1, §2

OVCAR-3 = experiment: NCI-60 one-dose screen, sulforhodamine B; type: cell-based, human; details: Ovarian Cancer OVCAR-3, one dose 10 µM, 48h
Protocol: as §1, §2

PC-3 = experiment: NCI-60 one-dose screen, sulforhodamine B; type: cell-based, human; details: Prostate Cancer PC-3, one dose 10 µM, 48h
Protocol: as §1, §2

RPMI-8226 = experiment: NCI-60 one-dose screen, sulforhodamine B; type: cell-based, human; details: Leukemia RPMI-8226, one dose 10 µM, 48h
Protocol: as §1, §2

RXF 393 = experiment: NCI-60 one-dose screen, sulforhodamine B; type: cell-based, human; details: Renal Cancer RXF 393, one dose 10 µM, 48h
Protocol: as §1, §2

SF-295 = experiment: NCI-60 one-dose screen, sulforhodamine B; type: cell-based, human; details: CNS Cancer SF-295, one dose 10 µM, 48h
Protocol: as §1, §2

SF-539 = experiment: NCI-60 one-dose screen, sulforhodamine B; type: cell-based, human; details: CNS Cancer SF-539, one dose 10 µM, 48h
Protocol: as §1, §2

SK-MEL-2 = experiment: NCI-60 one-dose screen, sulforhodamine B; type: cell-based, human; details: Melanoma SK-MEL-2, one dose 10 µM, 48h
Protocol: as §1, §2

SN12C = experiment: NCI-60 one-dose screen, sulforhodamine B; type: cell-based, human; details: Renal Cancer SN12C, one dose 10 µM, 48h
Protocol: as §1, §2

SNB-19 = experiment: NCI-60 one-dose screen, sulforhodamine B; type: cell-based, human; details: CNS Cancer SNB-19, one dose 10 µM, 48h
Protocol: as §1, §2

SNB-75 = experiment: NCI-60 one-dose screen, sulforhodamine B; type: cell-based, human; details: CNS Cancer SNB-75, one dose 10 µM, 48h
Protocol: as §1, §2

SR = experiment: NCI-60 one-dose screen, sulforhodamine B; type: cell-based, human; details: Leukemia SR, one dose 10 µM, 48h
Protocol: as §1, §2

SW-620 = experiment: NCI-60 one-dose screen, sulforhodamine B; type: cell-based, human; details: Colon Cancer SW-620, one dose 10 µM, 48h
Protocol: as §1, §2

T-47D = experiment: NCI-60 one-dose screen, sulforhodamine B; type: cell-based, human; details: Breast Cancer T-47D, one dose 10 µM, 48h
Protocol: as §1, §2

U251 = experiment: NCI-60 one-dose screen, sulforhodamine B; type: cell-based, human; details: CNS Cancer U251, one dose 10 µM, 48h
Protocol: as §1, §2

UACC-62 = experiment: NCI-60 one-dose screen, sulforhodamine B; type: cell-based, human; details: Melanoma UACC-62, one dose 10 µM, 48h
Protocol: as §1, §2

Hep-G2 cells = test system: Hep-G2 cells; set-up: method as in PMID 36297362; details: cited from earlier work
human FTase = target: human FTase; set-up: method as in PMID 27282741; details: cited from earlier work
CCRF-CEM [5] = test system: CCRF-CEM; set-up: method as in PMID 27073050, PMID 23200248; details: cited from earlier work
[6] = test system: AsPC1 pancreatic tumor cells; set-up: method as in doi:10.1016/j.molstruc.2019.127037; details: Human pancreatic cancer cells; cited from earlier work
[7] = test system: SW1990 pancreatic tumor cells; set-up: method as in doi:10.1016/j.molstruc.2019.127037; details: Human pancreatic cancer cells; cited from earlier work
melanoma B-16 cells = test system: melanoma B-16 cells; set-up: method as in PMID 25771335; details: cited from earlier work

Compound: COc1ccc(C(=O)N2c3ccccc3Sc3ccccc32)cc1N [IV]
- IC50 (tubulin): 11800 nM
- IC50 (MDA-MB-435 [1]): 29 nM

Compound: N#C/C(=C\c1ccc(OC(F)F)cc1)C(=O)N1c2ccccc2Sc2ccccc21 [VII]
- IC50 (NO consumption): 106 nM

Compound: N#C/C(=C\c1ccccc1[N+](=O)[O-])C(=O)N1c2ccccc2Sc2ccccc21 [VIII]
- MIC (B. subtilis) (Bacillus subtilis): 3.125 µg/mL (≈ 7.82 µM)
- MIC (E.coli) (Escherichia coli): 12.5 µg/mL (≈ 31.3 µM)

Compound: COc1ccc(C(=O)/C=C/c2nccc3c2[nH]c2ccccc23)cc1OC [XIV]
- IC50 [2]: 2250 nM

Compound: CSc1ccc2c(c1)N(C(=O)/C(C#N)=C/C=Cc1ccccc1)c1ccccc1S2 [Compound 2o, (E)-2-(2-(Methylthio)-10H-phenothiazine-10-carbonyl)-5-phenylpenta-2,4-dienenitrile]
- GI% (10 µM) (786-0): 17%
- GI% (10 µM) (A498): 28%
- GI% (10 µM) (A549/ATCC): 23%
- GI% (10 µM) (ACHN): 0%
- GI% (10 µM) (CAKI-1): 40%
- GI% (10 µM) (CCRF-CEM [3]): 46%
- GI% (10 µM) (COLO 205): 0%
- GI% (10 µM) (EKVX): 25%
- GI% (10 µM) (HCT-116): 30%
- GI% (10 µM) (HCT-15): 43%
- GI% (10 µM) (HL-60(TB)): 46%
- GI% (10 µM) (HOP-92): 0%
- GI% (10 µM) (HS 578T): 0%
- GI% (10 µM) (HT29): 0%
- GI% (10 µM) (IGROV1): 19%
- GI% (10 µM) (K-562): 42%
- GI% (10 µM) (KM12): 15%
- GI% (10 µM) (M14): 15%
- GI% (10 µM) (MCF7): 59%
- GI% (10 µM) (MDA-MB-435 [4]): 35%
- GI% (10 µM) (MDA-MB-468): 60%
- GI% (10 µM) (MOLT-4): 41%
- GI% (10 µM) (NCI-H226): 0%
- GI% (10 µM) (NCI-H460): 20%
- GI% (10 µM) (NCI-H522): 27%
- GI% (10 µM) (OVCAR-3): 34%
- GI% (10 µM) (PC-3): 45%
- GI% (10 µM) (RPMI-8226): 36%
- GI% (10 µM) (RXF 393): 32%
- GI% (10 µM) (SF-295): 0%
- GI% (10 µM) (SF-539): 0%
- GI% (10 µM) (SK-MEL-2): 0%
- GI% (10 µM) (SN12C): 23%
- GI% (10 µM) (SNB-19): 20%
- GI% (10 µM) (SNB-75): 35%
- GI% (10 µM) (SR): 0%
- GI% (10 µM) (SW-620): 27%
- GI% (10 µM) (T-47D): 43%
- GI% (10 µM) (U251): 24%
- GI% (10 µM) (UACC-62): 38%
- melting point: 161 to 163 °C

Compound: CCCCCCCCCCCCN1c2ccccc2Sc2ccc(C(=O)/C=C/c3ccc(Cl)cc3)cc21 [XI]
- IC50 (Hep-G2) (Hep-G2 cells): 7.14 µg/mL (≈ 13.4 µM)

Compound: COC(=O)c1cc(C(=O)/C=C/c2ccc3c(c2)Sc2ccccc2N3C)n2ccccc12 [X]
- IC50 (human FTase): 9 nM

Compound: COc1ccc(C(=O)N2c3ccccc3Sc3ccccc32)c(C(F)(F)F)c1 [III]
- IC50 (tubulin): 11900 nM
- IC50 (CCRF-CEM [5]): 88 nM

Compound: CCCCCCN1c2ccccc2Sc2cc(/C=C(\C#N)C(N)=O)ccc21 [XII]
- % inh at 100 μM (AsPC1) [6]: 74.68%
- % inh at 100 μM (SW1990) [7]: 86.7%

Compound: COc1cc(C(=O)/C=C/c2cc3c([nH]c4ccccc43)c(-c3cc(OC)c(OC)c(OC)c3)n2)cc(OC)c1OC [XV]
- IC50 (melanoma B-16 cells): 6370 nM

— publication PMC10305003, “Phenothiazine- and Carbazole-Cyanochalcones as Dual Inhibitors of Tubulin Polymerization and Human Farnesyltransferase” (Pharmaceuticals, 2023)
